Values quoted from earlier work, collected in paper PMC12682717, “Radiolabelling and bioequivalence of modified Tamoxifen solid lipid nanoparticles as a targeted chemotherapeutic drug” (Drug Delivery and Translational Research, 2025).
Counter-ions that a name gives are not always drawn.

Assays:
[1] = no reference given
[2] = set-up: method as in PMID 32151063, PMID 37906415; settings: patients

Question: For `CC/C(=C(\c1ccccc1)c1ccc(OCCN(C)C)cc1)c1ccccc1` [TAM, Tamoxifen citrate], which “biopharmaceutical categorization system (BCS) class” value [1] is on record?
Answer: class II

Question: And the “side effect: depression, irritability or vaginal dryness” value [2]?
Answer: 35%

Question: And the “side effect: hot flashes” value [2]?
Answer: 64%

Question: What about the “side effect: mood swings” value [2] of the same molecule?
Answer: 6%

Question: What about the “side effect: sleep issues” value [2] of the same molecule?
Answer: 36%

Question: And the “side effect: weight gain” value [2]?
Answer: 6%
